Test results: the supplement of paper PMC10307832

Tests used:
Test in all cases: relative viability (nuclei count vs DMSO), 5 days (fraction); higher = more cells survive
[1] = compound: COc1cc2nc(N3CCCN(C)CC3)nc(NC3CCN(Cc4ccccc4)CC3)c2cc1OC + Cc1cc(Nc2cc(N3CCN(C)CC3)nc(Sc3ccc(NC(=O)C4CC4)cc3)n2)n[nH]1 [Tozasertib] (partner 0.1 µM)
Outline: (§1)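 Nuclei were stained with Hoechst during a one-step fixation (final 0.05% Triton X-100, 1% formaldehyde, 1 ug/ml Hoechst) carried out 5 days after dosing, then counted on 4× images. The cells, lung cancer lines in 1536-well plates, had been dosed by pin tool the day after seeding with one drug alone or a fixed anchor-drug dose plus five library-drug doses (not always all listed) in √10 steps. Relative viability is the nuclei count in treated wells divided by that in vehicle wells, and each value is the median of duplicate plates.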

AZD6482 + Bortezomib = compound: Cc1cc([C@@H](C)Nc2ccccc2C(=O)O)c2nc(N3CCOCC3)cc(=O)n2c1 [AZD6482] + CC(C)C[C@H](NC(=O)[C@H](Cc1ccccc1)NC(=O)c1cnccn1)B(O)O [Bortezomib] (partner 0.002 µM)
Outline: as §1

AZD6482 + Foretinib = compound: Cc1cc([C@@H](C)Nc2ccccc2C(=O)O)c2nc(N3CCOCC3)cc(=O)n2c1 [AZD6482] + COc1cc2c(Oc3ccc(NC(=O)C4(C(=O)Nc5ccc(F)cc5)CC4)cc3F)ccnc2cc1OCCCN1CCOCC1 [Foretinib] (partner 0.25 µM)
Outline: as §1

AZD6482 + Linsitinib = compound: Cc1cc([C@@H](C)Nc2ccccc2C(=O)O)c2nc(N3CCOCC3)cc(=O)n2c1 [AZD6482] + C[C@]1(O)C[C@@H](c2nc(-c3ccc4ccc(-c5ccccc5)nc4c3)c3c(N)nccn32)C1 [Linsitinib] (partner 1 µM)
Outline: as §1

Row | Cell Line | relative viability ([1]; first compound 0.2 µM) | relative viability ([1]; first compound 0.6325 µM) | relative viability ([1]; first compound 2 µM) | relative viability ([1]; first compound 6.325 µM) | relative viability (AZD6482 + Bortezomib; first compound 0.08 µM) | relative viability (AZD6482 + Bortezomib; first compound 0.253 µM) | relative viability (AZD6482 + Bortezomib; first compound 0.8 µM) | relative viability (AZD6482 + Bortezomib; first compound 2.53 µM) | relative viability (AZD6482 + Bortezomib; first compound 8 µM) | relative viability (AZD6482 + Foretinib; first compound 0.08 µM) | relative viability (AZD6482 + Foretinib; first compound 0.253 µM) | relative viability (AZD6482 + Foretinib; first compound 0.8 µM) | relative viability (AZD6482 + Foretinib; first compound 8 µM) | relative viability (AZD6482 + Linsitinib; first compound 0.08 µM) | relative viability (AZD6482 + Linsitinib; first compound 0.253 µM) | relative viability (AZD6482 + Linsitinib; first compound 0.8 µM) | relative viability (AZD6482 + Linsitinib; first compound 2.53 µM) | relative viability (AZD6482 + Linsitinib; first compound 8 µM) | relative viability (AZD6482 + Foretinib; first compound 2.53 µM)
1 | NCI-H2087 | 0.228 | 0.269 | 0.292 | 0.304 | 0.904 | 0.912 | 0.831 | 0.661 | 1.04 | 1.07 | 0.972 | 1.12 | 1.08 | 0.902 | 0.929 | 1.09 | 0.815 | 0.964 | –
2 | NCI-H2126 | 0.818 | 0.874 | 0.868 | 0.826 | 1.12 | 1.09 | 1.1 | 0.851 | 0.786 | 1.08 | 0.954 | 1.12 | 0.724 | 0.551 | 0.591 | 0.518 | 0.485 | 0.548 | 0.757
3 | NCI-H2228 | 0.254 | 0.311 | 0.265 | 0.257 | 0.754 | 0.986 | 0.91 | 0.849 | 1.13 | – | 0.791 | 0.862 | 0.649 | 0.48 | 0.38 | 0.38 | 0.469 | 0.428 | 0.694
4 | NCI-H2347 | 0.568 | 0.604 | 0.743 | 0.64 | 0.755 | 0.681 | 0.873 | 0.619 | 0.496 | 0.646 | 0.569 | 0.946 | 0.74 | – | 0.943 | 0.949 | 0.571 | 0.84 | 0.557
5 | NCI-H2405 | 0.711 | 0.696 | 0.83 | 0.74 | 0.77 | 0.895 | 1.06 | 0.73 | 0.661 | 0.642 | – | 0.968 | 0.57 | 0.399 | – | 0.673 | 0.427 | 0.629 | 0.608
6 | NCI-H3122 | 0.429 | 0.413 | 0.543 | 0.536 | 0.87 | 0.989 | 1.1 | 0.803 | 1.09 | 0.937 | 0.846 | 1.09 | 0.926 | 0.828 | 0.993 | 1.02 | 0.85 | 0.816 | 0.946
7 | PC-3 [JPC-3] | 0.932 | 0.915 | 0.938 | 0.88 | 0.658 | 0.844 | 0.843 | 0.761 | 0.713 | 0.928 | 1.09 | 1.09 | 0.875 | 0.911 | 1.04 | 1.02 | 0.787 | 0.841 | 0.877
8 | PC-14 | 0.587 | 0.61 | 0.64 | 0.505 | 0.785 | 0.917 | 0.913 | 0.67 | 1.02 | 0.906 | 0.9 | 0.945 | 0.953 | 0.93 | 0.966 | 1.02 | 0.675 | 0.736 | 0.83
9 | RERF-LC-KJ | 0.508 | 0.523 | 0.47 | 0.417 | 0.825 | 0.907 | 0.895 | 0.921 | 0.865 | 0.791 | 0.825 | 0.822 | 0.7 | 0.757 | 0.814 | 0.822 | 0.764 | 0.784 | 0.781
10 | SK-LU-1 | 0.363 | 0.349 | 0.363 | 0.352 | 0.776 | 0.642 | 1.16 | 0.589 | 0.46 | – | 0.735 | 0.688 | 0.584 | – | 0.905 | 1.1 | 0.886 | 0.912 | 0.555
11 | SW 1573 | 0.196 | 0.165 | 0.246 | 0.128 | 0.92 | 0.86 | 0.877 | 0.613 | 0.633 | 0.792 | 0.776 | 0.862 | 0.608 | 0.66 | 0.678 | 0.493 | 0.443 | 0.572 | 0.726
12 | UMC-11 | 0.202 | 0.214 | 0.212 | 0.2 | 0.836 | 0.628 | 0.862 | 0.627 | 0.75 | 1.01 | 0.988 | 0.997 | 1.13 | 0.959 | 0.962 | 0.987 | 0.787 | 1 | 0.815
